Source: patent publication US12692235B2, “Fused ring compound and application thereof” (WUHAN LL SCIENCE AND TECHNOLOGY DEVELOPMENT CO., LTD., priority 2019, dated 2026)

These molecules were tested against T1, hP2X4 (human purinergic P2X receptor subtype 4) (Homo sapiens, UniProt Q99571). Conditions: P2X4 IC50 (nM), HEK293 cells stably expressing hP2X4; agonist BZ-ATP 2.5 μM; FLIPR calcium.
T1 sequence (Q99571 1-404 isoform Q99571-2): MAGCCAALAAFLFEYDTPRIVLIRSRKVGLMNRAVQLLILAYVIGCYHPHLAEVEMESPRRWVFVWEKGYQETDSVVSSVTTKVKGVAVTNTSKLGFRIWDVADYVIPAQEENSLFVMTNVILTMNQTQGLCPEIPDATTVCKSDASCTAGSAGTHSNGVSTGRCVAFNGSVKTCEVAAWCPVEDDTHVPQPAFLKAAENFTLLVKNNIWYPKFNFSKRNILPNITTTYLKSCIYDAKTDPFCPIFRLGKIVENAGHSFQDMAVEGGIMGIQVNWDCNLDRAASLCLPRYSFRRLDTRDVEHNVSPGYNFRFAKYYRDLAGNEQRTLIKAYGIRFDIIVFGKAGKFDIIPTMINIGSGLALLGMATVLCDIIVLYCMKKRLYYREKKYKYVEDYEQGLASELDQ
Experimental: Cells at 400,000 cells/mL were seeded into a 384-well plate (10,000 cells/well) 18-24 h prior to the FLIPR experiment and then incubated overnight in a cell incubator. […] Each well was added with 20 μL of 0.5×Calcium 6 fluorescent dye (Molecular Devices, R8190) and then the cells were subjected to dye-loading incubation at 37° C. for 1.5 h. Each well was added with 10 μL of respective test compound (dissolved in DMSO at a concentration of 10 mM and serially diluted with buffer) or vehicle and the mixture was equilibrated for 30 min at room temperature.

Row | Compound | IC50 [nM]
1 | NS(=O)(=O)c1cc(NC(=O)Cc2ccccc2Cl)cc2c(Cl)nccc12 [Compound 2, N-(1-chloro-5-sulfamoylisoquinolin-7-yl)-2-(2-chlorophenyl)acetamide] | 10 to 50
2 | NS(=O)(=O)c1cc(NC(=O)Cc2ccccc2Cl)cc2ncccc12 [Compound 4, 2-(2-chlorophenyl)-N-(5-sulfamoylquinolin-7-yl)acetamide] | 10 to 50
3 | NS(=O)(=O)c1cc(NC(=O)Cc2ccccc2Cl)cc2cnc(Cl)cc12 [Compound 5, N-(3-chloro-5-sulfamoylisoquinolin-7-yl)-2-(2-chlorophenyl)acetamide] | 50 to 200
4 | NS(=O)(=O)c1cc(NC(=O)Cc2ccccc2Cl)cc2cnccc12 [Compound 6] | 10 to 50
5 | NS(=O)(=O)c1cc(NC(=O)Cc2ccccc2Cl)cc2cnc(F)cc12 [Compound 7, 2-(2-chlorophenyl)-N-(3-fluoro-5-sulfamoylisoquinolin-7-yl)acetamide] | 50 to 200
6 | CCOc1nccc2c(S(N)(=O)=O)cc(NC(=O)Cc3ccccc3Cl)cc12 [Compound 8, 2-(2-chlorophenyl)-N-(1-ethoxy-5-sulfamoylisoquinolin-7-yl)acetamide] | 10 to 50
7 | CC(C)Oc1nccc2c(S(N)(=O)=O)cc(NC(=O)Cc3ccccc3Cl)cc12 [Compound 9, 2-(2-chlorophenyl)-N-(1-isopropoxy-5-sulfamoylisoquinolin-7-yl)acetamide] | 10 to 50
8 | NS(=O)(=O)c1cc(NC(=O)Cc2ccccc2Cl)cc2c(OC3CC3)nccc12 [Compound 10, 2-(2-chlorophenyl)-N-(1-cyclopropoxy-5-sulfamoylisoquinolin-7-yl)acetamide] | 10 to 50
9 | NS(=O)(=O)c1cc(NC(=O)Cc2ccccc2Cl)cc2c(OC3CCC3)nccc12 [Compound 11, 2-(2-chlorophenyl)-N-(1-cyclobutoxy-5-sulfamoylisoquinolin-7-yl)acetamide] | 10 to 50
10 | NS(=O)(=O)c1cc(NC(=O)Cc2ccccc2Cl)cc2c(OC3CNC3)nccc12 [Compound 12, N-(1-(azetidin-3-oxy)-5-sulfamoylisoquinolin-7-yl)-2-(2-chlorophenyl)acetamide] | 10 to 50
11 | NS(=O)(=O)c1cc(NC(=O)Cc2ccccc2Cl)cc2c(OC3CCCC3)nccc12 [Compound 13] | 10 to 50
12 | CC(C)COc1nccc2c(S(N)(=O)=O)cc(NC(=O)Cc3ccccc3Cl)cc12 [Compound 14, 2-(2-chlorophenyl)-N-(1-isobutoxy-5-sulfamoylisoquinolin-7-yl)acetamide] | 10 to 50
13 | CC(C)CCOc1nccc2c(S(N)(=O)=O)cc(NC(=O)Cc3ccccc3Cl)cc12 [Compound 15, 2-(2-chlorophenyl)-N-(1-(isopentyloxy)-5-sulfamoylisoquinolin-7-yl)acetamide] | 50 to 200
14 | NS(=O)(=O)c1cc(NC(=O)Cc2ccccc2Cl)cc2c(OCC3CC3)nccc12 [Compound 16] | 10 to 50
15 | NS(=O)(=O)c1cc(NC(=O)Cc2ccccc2Cl)cc2c(OCCC3CC3)nccc12 [Compound 17, 2-(2-chlorophenyl)-N-(1-(2-cyclopropylethoxy)-5-sulfamoylisoquinolin-7-yl)acetamide] | 50 to 200
16 | NS(=O)(=O)c1cc(NC(=O)Cc2ccccc2Cl)cc2cncc(F)c12 [Compound 18, 2-(2-chlorophenyl)-N-(4-fluoro-5-sulfamoylisoquinolin-7-yl)acetamide] | 50 to 200
17 | NS(=O)(=O)c1cc(NC(=O)Cc2ccccc2Cl)cc2cnc(C(F)(F)F)cc12 [Compound 19, 2-(2-chlorophenyl)-N-(−5-sulfamoyl-3-(trifluoromethyl)isoquinolin-7-yl)acetamide] | < 10
18 | N#Cc1cc2c(S(N)(=O)=O)cc(NC(=O)Cc3ccccc3Cl)cc2cn1 [Compound 20, 2-(2-chlorophenyl)-N-(3-cyano-5-sulfamoylisoquinolin-7-yl)acetamide] | 10 to 50
19 | NS(=O)(=O)c1cc(NC(=O)Cc2ccccc2Cl)cc2cnc(C3CC3)cc12 [Compound 21, 2-(2-chlorophenyl)-N-(3-cyclopropyl-5-sulfamoylisoquinolin-7-yl)acetamide] | < 10
20 | NS(=O)(=O)c1cc(NC(=O)Cc2ccccc2Cl)cc2cnc(-n3ccnc3)cc12 [Compound 22, N-(3-(1H-imidazol-1-yl)-5-sulfamoylisoquinolin-7-yl)-2-(2-chlorophenyl)acetamide] | 10 to 50
21 | NS(=O)(=O)c1cc(NC(=O)Cc2ccccc2Cl)cc2c(C3CC3)nccc12 [Compound 23, 2-(2-chlorophenyl)-N-(1-cyclopropyl-5-sulfamoylisoquinolin-7-yl)acetamide] | < 10

Row | Compound | IC50 [nM]
22 | CC(C)c1nccc2c(S(N)(=O)=O)cc(NC(=O)Cc3ccccc3Cl)cc12 [Compound 24, 2-(2-chlorophenyl)-N-(1-isopropyl-5-sulfamoylisoquinolin-7-yl)acetamide] | < 10
23 | NS(=O)(=O)c1cc(NC(=O)Cc2ccccc2Cl)cc2c(C(F)F)nccc12 [Compound 25, 2-(2-chlorophenyl)-N-(1-(difluoromethyl)-5-sulfamoylisoquinolin-7-yl)acetamide] | < 10
24 | COc1nccc2c(S(N)(=O)=O)cc(NC(=O)Cc3c(F)cccc3Cl)cc12 [Compound 26, 2-(2-chloro-6-fluorophenyl)-N-(1-methoxy-5-sulfamoylisoquinolin-7-yl)acetamide] | < 10
25 | COc1nccc2c(S(N)(=O)=O)cc(NC(=O)Cc3cc(F)c(F)cc3Cl)cc12 [Compound 27, 2-(2-chloro-4,5-difluorophenyl)-N-(1-methoxy-5-sulfamoylisoquinolin-7-yl)acetamide] | < 10
26 | NS(=O)(=O)c1cc(NC(=O)Cc2ccccc2Cl)cc2c(OC(F)F)nccc12 [Compound 28, 2-(2-chlorophenyl)-N-(1-(difluoromethoxy)-5-sulfamoylisoquinolin-7-yl)acetamide] | < 10
27 | NS(=O)(=O)c1cc(NC(=O)Cc2ccccc2Cl)cc2c(C(F)(F)F)nccc12 [Compound 29, 2-(2-chlorophenyl)-N-(-5-sulfamoyl-1-(trifluoromethyl)isoquinolin-7-yl)acetamide] | 10 to 50
28 | NS(=O)(=O)c1cc(NC(=O)Cc2ccccc2Cl)cc2c(Oc3ccccc3)nccc12 [Compound 30, 2-(2-chlorophenyl)-N-(1-phenoxy-5-sulfamoylisoquinolin-7-yl)acetamide] | 10 to 50
29 | NS(=O)(=O)c1cc(NC(=O)Cc2ccccc2Cl)cc2c(Oc3ccc(F)cc3)nccc12 [Compound 31, 2-(2-chlorophenyl)-N-(1-(4-fluorophenoxy)-5-sulfamoylisoquinolin-7-yl)acetamide] | 10 to 50
30 | NS(=O)(=O)c1cc(NC(=O)Cc2ccccc2Cl)cc2c(OCc3ccc(F)cc3)nccc12 [Compound 32, 2-(2-chlorophenyl)-N-(1-((4-fluorobenzyl)oxo)-5-sulfamoylisoquinolin-7-yl)acetamide] | 10 to 50
31 | CC(=O)N1CC(Oc2nccc3c(S(N)(=O)=O)cc(NC(=O)Cc4ccccc4Cl)cc23)C1 [Compound 33, N-(1-((1-acetylazetidin-3-yl)oxo)-5-sulfamoylisoquinolin-7-yl)-2-(2-chlorophenyl)acetamide] | 10 to 50
32 | Cc1ccc(Oc2nccc3c(S(N)(=O)=O)cc(NC(=O)Cc4ccccc4Cl)cc23)cc1 [Compound 34, 2-(2-chlorophenyl)-N-(5-sulfamoyl-1-(p-tolyloxy)isoquinolin-7-yl)acetamide] | 10 to 50
33 | COc1ccc(Oc2nccc3c(S(N)(=O)=O)cc(NC(=O)Cc4ccccc4Cl)cc23)cc1 [Compound 35, 2-(2-chlorophenyl)-N-(1-(4-methoxyphenoxy)-5-sulfamoylisoquinolin-7-yl)acetamide] | 10 to 50
34 | NS(=O)(=O)c1cc(NC(=O)Cc2ccccc2Cl)cc2cccnc12 [Compound 37, 2-(2-chlorophenyl)-N-(8-sulfamoylquinolin-6-yl)acetamide] | 10 to 50
35 | NS(=O)(=O)c1cc(NC(=O)Cc2ccccc2Cl)cc2ccc(F)nc12 [Compound 38, 2-(2-chlorophenyl)-N-(2-fluoro-8-sulfamoylquinolin-6-yl)acetamide] | 50 to 200
36 | Nc1ncc2c(S(N)(=O)=O)cc(NC(=O)Cc3ccccc3Cl)cc2n1 [Compound 39, N-(2-amino-5-sulfamoylquinazolin-7-yl)-2-(2-chlorophenyl)acetamide] | 200 to 5000
37 | NS(=O)(=O)c1cc(NC(=O)Cc2ccccc2Cl)cc2cncnc12 [Compound 40, 2-(2-chlorophenyl)-N-(8-sulfamoylquinazolin-6-yl)acetamide] | 50 to 200
38 | NS(=O)(=O)c1cc(NC(=O)Cc2ccccc2Cl)cc2ccnnc12 [Compound 41, 2-(2-chlorophenyl)-N-(8-sulfamoylcinnolin-6-yl)acetamide] | 50 to 200
39 | N#Cc1ccc2cc(NC(=O)Cc3ccccc3Cl)cc(S(N)(=O)=O)c2c1 [Compound 42, 2-(2-chlorophenyl)-N-(6-cyano-4-sulfamoylnaphthalen-2-yl)acetamide] | 10 to 50
40 | NS(=O)(=O)c1cc(NC(=O)Cc2ccccc2Cl)cc2c(=O)[nH]ccc12 [Compound 43, 2-(2-chlorophenyl)-N-(1-oxo-5-sulfamoyl-1,2-dihydroisoquinolin-7-yl)acetamide] | 200 to 5000
41 | N#Cc1nccc2c(S(N)(=O)=O)cc(NC(=O)Cc3ccccc3Cl)cc12 [Compound 44, 2-(2-chlorophenyl)-N-(1-cyano-5-sulfamoylisoquinolin-7-yl)acetamide] | 200 to 5000
42 | NS(=O)(=O)c1cc(NC(=O)Cc2ccccc2Cl)cc2ccncc12 [Compound 45, 2-(2-chlorophenyl)-N-(8-sulfamoylisoquinolin-6-yl)acetamide] | 50 to 200
